From EP4635969A1, “NOVEL GLUCOCORTICOID, METHOD FOR PREPARING SAME, AND USE THEREOF” (Tianjin Pharmaceutical Biotechnology Co., Ltd., priority 2022, dated 2024)

Key:
[1] = tested on: inflammatory cytokines IL-6 and IL-12; assay: Anti-asthma pharmacodynamic experiment: inflammatory cytokines in bronchoalveolar lavage fluid (ELISA); format: in vivo, female BALB/c mice; details: compared with the model group
Protocol: (§1) Pharmacological Example 4: Pharmacodynamic Experiment on Anti-Asthma
(§2) The suspensions were stored at room temperature protected from light until use.
(§3) Positive control drug: Budesonide Suspension for Inhalation (specification: 2 mL: 1 mg; AstraZeneca Inc.; Lot No. : 327392) was diluted with injection-grade sodium chloride solution to 0.3 mg/ml as the positive control drug, and stored at room temperature protected from light until use.
(§4) Sixty female BALB/c mice underwent a one-week adaptive feeding period. Ten mice were randomly selected as the blank control group, while 50 mice were selected to establish asthma models.
(§5) From days 21 to 23 after sensitization, the mice in the model group and drug administration group were exposed to a 30-minute aerosol challenge with 5% OVA, while the mice in the blank control group were exposed to normal saline aerosol for the same duration.
At the end of airway hyperresponsiveness testing in mice, the mice were euthanized by cervical dislocation and fixed on a dissection tray. The abdomens and thoracic cavities of the mice were opened, and the skin and excess tissues of the neck were excised to expose the trachea of the mice. A small incision was made transversely on the trachea with a small scissors. A pre-treated 1 mL syringe needle was inserted and fastened with surgical thread. A 1 mL syringe was used to slowly inject 0.5 mL of pre-chilled phosphate-buffered saline (PBS) into the lungs of the mice, followed by slow aspiration. Each mouse was lavaged once, and a total of approximately 0.4 ml of lavage fluid was collected. The bronchoalveolar lavage fluid was centrifuged at 3000 rpm for 5 min. After centrifugation, the supernatant was aliquoted, and the levels of inflammatory cytokines IL-6 and IL-12 in the bronchoalveolar lavage fluid were determined using ELISA kits.

[2] = Pharmacokinetic (PK) experiment in rats; format: in vivo, male SD rats; details: same experimental conditions
Protocol: Pharmacological Example 11. Pharmacokinetic (PK) Experiment in Rats
The solution was prepared before administration.
Animals: 6 male SD rats, SPF grade (Beijing Vital River Laboratory Animal Technology Co., Ltd.).
Animal grouping: The animals were weighed prior to administration, and the dosage was calculated based on body weight. The animals in the oral administration group were fasted overnight (10-14 hours) before administration, and food was reintroduced 4 hours post-administration. Table 23. Animal grouping and drug administration dosages for pharmacokinetic (PK) experiment in rats
Blood collection time points: Blood was collected from the jugular vein at 2 min, 5 min, 15 min, 30 min, 1 h, 2 h, 4 h, 8 h, and 24 h after administration. Approximately 0.25 mL of blood was collected for each sample, anticoagulated with heparin sodium, and then placed on ice immediately.
Plasma sample processing: Blood samples were placed on ice after collection and centrifuged to separate plasma within 1 hour (centrifugation conditions: 6000 rpm, 3 minutes, 2-8 °C ). Plasma samples were stored in a -80°C freezer before analysis.
Data processing: Pharmacokinetic parameters were calculated using Phoenix WinNonlin 8.2.0 based on the plasma drug concentration data at different time points.

[3] = tested on: dry eye syndrome model New Zealand rabbits; assay: Dry eye syndrome experiment (benzalkonium chloride model): tear secretion test with phenol red cotton threads; format: in vivo, male New Zealand White rabbits; details: for tear secretion: compared with the model group
[4] = tested on: psoriasis model mice; assay: Psoriasis experiment (imiquimod model): skin lesion (PASI) score; format: in vivo; details: compared with the model group
Protocol: (§6) Positive control drug: Fluticasone Propionate Cream (specification: 0.05% × 15 g, Zhejiang Xianju Pharmaceutical Co. Ltd., Lot No. 211106), stored at room temperature protected from light until use.
(§7) Adult mice were selected, and the skin of 2 cm × 3 cm on the back of mice was locally depilated. The mice in the model group and drug administration group were applied with 62.5 mg of 5% imiquimod cream on their back for modeling, while the mice in the blank control group were applied with medical petroleum jelly on their back daily. The above procedures were performed once a day for 7 consecutive days.
(§8) The mice in the drug administration group were applied with the corresponding drugs on their backs daily at a dose of 0.2 g per mouse, while the blank control group and the model group were only applied with 0.2 g of the test sample drug matrix. One hour after drug administration, the drugs were wiped off with sterile cotton swabs, followed by the application of imiquimod. The above procedures were performed once a day for 7 consecutive days.
Referring to the clinical Psoriasis Area and Severity Index (PASI) scoring criteria, erythema, scaling, and thickness at the skin lesion sites were evaluated on a 0-4 scale on day 8 of modeling, and the total score was obtained by summing the three items.
• (1) Erythema: a score of 0 points indicates no erythema, a score of 1 point indicates erythema appearing light red, a score of 2 points indicates erythema appearing red, a score of 3 points indicates erythema appearing dark red, and a score of 4 points indicates erythema appearing extremely deep red; • (2) Scaling: a score of 0 points indicates no scaling on the surface, a score of 1 point indicates partial skin lesions covered with scaling, a score of 2 points indicates most skin lesions covered with scaling, a score of 3 points indicates almost all skin lesions covered with scaling in layers, and a score of 4 points indicates all skin lesions covered with scaling; • (3) Thickness: a score of 0 points indicates skin lesions flush with normal skin, a score of 1 point indicates skin lesions slightly elevated above normal skin surface, a score of 2 points indicates moderate elevation of skin lesions, a score of 3 points indicates thickened skin lesions with obvious elevation, and a score of 4 points indicates highly thickened skin lesions with prominent elevation.
(§9) Statistical analysis was performed using SPSS software, and the results were expressed as mean ± standard deviation. One-way ANOVA was used for intergroup comparisons. For data with homogeneous variance, the LSD test was used; for data with heterogeneous variance, the Dunnett-t test was used. A value of P < 0.05 was considered statistically significant.

[5] = tested on: epidermal layer in rats; assay: Adverse reactions of continuous dermal administration: thickness of the epidermal layer (H&E sections); format: in vivo, SD rats; details: compared with the blank control group
Description: Pharmacological Example 10: Experiment on Adverse Reactions of Continuous Dermal Administration in Rats
Animals: SD rats, SPF grade, with an equal number of males and females, weighing 230-250 g.
Animal grouping: After adaptive feeding, the rats were randomly divided into 4 groups. […] One day before administration, the backs of rats were shaved at an area of 5 cm × 6 cm. […] The rats in the blank control group were applied with the blank matrix of corresponding mass on their backs, twice a day for a consecutive week. Table 21. Animal grouping and drug administration dosages for the experiment on adverse reactions of continuous dermal administration in rats
To examine the effects of continuous administration of the test samples on the epidermal layer, the back skin tissues were stained with hematoxylin and eosin (H&E) (magnification ×40), and the thickness of the epidermal layer was quantitatively measured based on the H&E-stained sections.

[6] = tested on: uveitis model rats; assay: Anti-uveitis pharmacodynamic experiment (LPS model): ocular pathological score; format: in vivo, male SD rats; details: compared with the model group
[7] = tested on: inflammatory cytokines (TNF-α); assay: Anti-uveitis pharmacodynamic experiment (LPS model): inflammatory cytokines in aqueous humor (ELISA); format: in vivo, male SD rats; details: values not given
Protocol: Pharmacological Example 5. Pharmacodynamic Experiment on Anti-Uveitis
Test samples: Compounds 23 and 26 were prepared as 5 mg/5 mL ophthalmic suspensions with reference to the formulation of Fluorometholone Eye Drops, and stored at room temperature protected from light until use.
Positive control drug: Fluorometholone Eye Drops (specification: 5 mL/5 mg; Santen Pharmaceutical (CHINA) Co., Ltd.; Lot No. : J20180068) was used as the positive control drug and stored at room temperature protected from light until use.
Fifty male SD rats underwent a one-week adaptive feeding period. The animals were randomly divided into 5 groups: Group 1 served as the blank control group, and Groups 2 to 5 were the model group, fluorometholone group, compound 23 group, and compound 26 group, respectively. Groups 2 to 5 were used to establish rat uveitis models by single subcutaneous injection of 1 mg/kg LPS (Salmonella; Sigma; Lot No. 0000164114) into the plantar tissue of the hindpaw. Salmonella endotoxin was dissolved in normal saline to prepare an injection solution at a concentration of 2 mg/mL, which was injected subcutaneously at 1 mg/kg into the plantar tissue of one paw of the rats. Group 1 was injected with an equal volume of normal saline.
After modeling, 40 µL of normal saline was administered to the eyes (bilateral) of the rats in the blank control group and model group, and 40 µL of the corresponding drugs were administered to the eyes (bilateral) of the […] in the compound 23 group, compound 26 group, and positive drug fluorometholone group, 3 times a day for 2 days. Table 8. Animal grouping and drug administration dosages
Thirty hours after modeling, aqueous humor was collected from both eyes of rats, and partial eyeball tissues of rats were collected. The level of the inflammatory cytokines (TNF-α) was detected using a rat ELISA assay kit.
Statistical analysis was performed using SPSS software. Measurement data were expressed as mean ± standard deviation. One-way ANOVA was used for intergroup comparisons. For data with homogeneous variance, LSD test was used; for data with heterogeneous variance, Dunnett-t test was used. A value of P < 0.05 was considered statistically significant.

[8] = tested on: asthma model mice; assay: Anti-asthma pharmacodynamic experiment: airway hyperresponsiveness (Penh) after methacholine challenge; format: in vivo, female BALB/c mice; details: compared with the model group
Protocol: as §1, §2, §3, §4, §5
Airway responsiveness was measured in all groups of mice after the last challenge. The mice were placed into a plethysmography chamber, and baseline Penh values were recorded. Subsequently, the mice were challenged with aerosolized methacholine at concentrations from low to high of 0, 6.25, and 12.5 mg/mL, with an aerosol volume of 100 µ L each time for 60 s. […] Penh values were then recorded for 3 min and averaged to compare the airway responsiveness of each group of mice.

[9] = tested on: IL-17; assay: Psoriasis experiment (imiquimod model): inflammatory cytokine in serum (ELISA); format: in vivo, mice; details: compared with the model group
Protocol: as §6, §7, §8
After the PASI scoring on day 8 of modeling, blood was collected from the orbital sinus of mice and centrifuged at 3000 rpm for 10 min. The supernatant was extracted to measure the level of IL-17. All procedures were performed following the instructions of the ELISA kit.
as §9

Row | Compound | Effects on inflammatory cytokines in bronchoalveolar lavage fluid of mice [1] | pharmacokinetic properties (plasma clearance rate, systemic exposure) [2] | Wetting length of phenol red cotton threads (mm) D0 ([3]; D0, 1 mg/mL, 50 µL/eye, 3 times a day for 14 days) [mm] | Wetting length of phenol red cotton threads (mm) D3 ([3]; D3, 1 mg/mL, 50 µL/eye, 3 times a day for 14 days) [mm] | Wetting length of phenol red cotton threads (mm) D7 ([3]; D7, 1 mg/mL, 50 µL/eye, 3 times a day for 14 days) [mm] | Wetting length of phenol red cotton threads (mm) D15 ([3]; D15, 1 mg/mL, 50 µL/eye, 3 times a day for 14 days) [mm] | tear secretion [3] | PASI scores [4] | thickness of the epidermal layer after continuous dermal administration [5] | ocular abnormalities / ocular pathological score [6] | inflammatory cytokines in aqueous humor [7] | Effects on airway hyperresponsiveness (Penh values) in mice [8] | level of IL-17 / inflammatory cytokines in psoriasis model mice [9]
1 | C[C@]12C=CC(=O)C=C1CC[C@H]1[C@@H]3C[C@H]4OC(c5ccc(CSC6COC(=O)C6)cc5Cl)O[C@@]4(C(=O)CO)[C@@]3(C)C[C@H](O)[C@@]12F (stereo partly drawn) [Compound 20, (6aS,6bR,7S,8aS,8bS,11aR,12aS,12bS)-10-(2-Chloro-4-(((5-oxotetrahydrofuran-3-yl)thio)methyl)phenyl)-6b-fluoro-7-hydroxy-8b-(2-hydroxyacetyl)-6a,8a-dimethyl-1,2,6a,6b,7,8,8a,8b,11a,12,12a, 12b-dodecahydro-4H-naphtho[2',1':4,5]indeno[1,2-d][1,3]dioxol-4-one] | pharmacological effects similar to those of compound 23 | pharmacokinetic properties similar to those of compound 8 | 27.76 ± 6.04 | 23.39 ± 3.93 | 29.78 ± 2.74 | 35.28 ± 3.21 | significantly increased the tear secretion on day 15 | significantly decreased PASI scores on day 7 | no significant changes in the thickness of the epidermal layer observed | significantly improved ocular abnormalities | suppressed inflammatory cytokines in aqueous humor | significantly decreased the Penh values in mice | significantly inhibited inflammatory cytokines in the skin of psoriasis model mice
2 | C[C@]12C=CC(=O)C=C1CC[C@H]1[C@@H]3C[C@H]4OC(c5ccc(CNC6COC(=O)C6)cc5)O[C@@]4(C(=O)CO)[C@@]3(C)C[C@H](O)[C@@]12F (stereo partly drawn) [Compound 21, (6aS,6bR,7S,8aS,8bS,11aR,12aS,12bS)-6b-Fluoro-7-hydroxy-8b-(2-hydroxyacetyl)-6a,8a-dimethyl-10-(4-(((5-oxotetrahydrofuran-3-yl)amino)methyl)phenyl)-1,2,6a,6b,7,8,8a,8b,11a,12,12a,12b-dodecahydro-4H-naphtho[2',1':4,5]indeno[1,2-d][1,3]dioxol-4-one] | pharmacological effects similar to those of compound 23 | pharmacokinetic properties similar to those of compound 8 | – | – | – | – | significantly increased the tear secretion | significantly decreased PASI scores on day 7 | no significant changes in the thickness of the epidermal layer observed | significantly improved ocular abnormalities | suppressed inflammatory cytokines in aqueous humor | significantly decreased the Penh values in mice | significantly inhibited inflammatory cytokines in the skin of psoriasis model mice
3 | C[C@]12C=CC(=O)C=C1CC[C@H]1[C@@H]3C[C@H]4OC(c5ccc(COC6CCOC6=O)cc5)O[C@@]4(C(=O)CO)[C@@]3(C)C[C@H](O)[C@@]12Cl (stereo partly drawn) [Compound 22, (6aS,6bR,7S,8aS,8bS,11aR,12aS,12bS)-6b-Chloro-7-hydroxy-8b-(2-hydroxyacetyl)-6a,8a-dimethyl-10-(4-(((2-oxotetrahydrofuran-3-yl)oxy)methyl)phenyl)-1,2,6a,6b,7,8,8a,8b,11a,12,12a,12b-do decahydro-4H-naphtho[2',1':4,5]indeno[1,2-d][1,3]dioxol-4-one] | pharmacological effects similar to those of compound 23 | pharmacokinetic properties similar to those of compound 8 | – | – | – | – | significantly increased the tear secretion | significantly decreased PASI scores on day 7 | no significant changes in the thickness of the epidermal layer observed | significantly improved ocular abnormalities | suppressed inflammatory cytokines in aqueous humor | significantly decreased the Penh values in mice | significantly inhibited inflammatory cytokines in the skin of psoriasis model mice
